Laboratory results taken from patent publication US8741602B2, “Method for producing glucuronic acid conjugate using Saccharomyces cerevisiae” (Toyama Prefecture, priority 2010, dated 2014).

What was measured:
[1] = biological target: T1, UGT1A6 (Homo sapiens, UniProt P19224); test: Glucuronide production in resting S. cerevisiae AH22 cells co-expressing UDPGDH and UGT1A6; assay type: cell-based; set-up: expressed in transfected cells; host or cells: Saccharomyces cerevisiae AH22
T1 sequence (P19224 27-532): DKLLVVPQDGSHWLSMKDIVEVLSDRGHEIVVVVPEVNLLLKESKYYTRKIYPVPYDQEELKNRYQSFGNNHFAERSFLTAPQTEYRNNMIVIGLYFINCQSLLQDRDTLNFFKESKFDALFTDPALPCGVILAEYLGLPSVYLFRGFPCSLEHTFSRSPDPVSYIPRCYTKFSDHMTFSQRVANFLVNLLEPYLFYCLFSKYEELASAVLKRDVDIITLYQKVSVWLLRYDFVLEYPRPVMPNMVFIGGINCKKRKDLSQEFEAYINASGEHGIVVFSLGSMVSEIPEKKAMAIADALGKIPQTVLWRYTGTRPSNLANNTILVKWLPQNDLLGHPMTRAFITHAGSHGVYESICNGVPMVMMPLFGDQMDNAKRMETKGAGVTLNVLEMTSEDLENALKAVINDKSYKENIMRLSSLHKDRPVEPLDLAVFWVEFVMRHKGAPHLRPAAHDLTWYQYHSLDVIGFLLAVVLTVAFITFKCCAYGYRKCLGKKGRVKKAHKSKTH
Procedure: (§1) Each phase was analyzed by UPLC system.
Time course of conversion in the transformant with the highest activity of glucuronidation (AH22: pAUR/At.UDPGDH+pGYR/hUGT1A6) was examined (FIG. 6).
Glucose concentration dependence of conversion in the transformant with the highest activity of glucuronidation (AH22: pAUR/At.UDPGDH+pGYR/hUGT1A6) was examined (FIG. 7).

[2] = biological target: T2, hUGT1A9 (Homo sapiens, UniProt O60656); test: Glucuronide production in resting S. cerevisiae AH22 cells co-expressing UDPGDH and UGT1A9; assay type: cell-based
T2 construct: expressed in transfected cells; host or cells: Saccharomyces cerevisiae AH22
T2 sequence (O60656 26-530): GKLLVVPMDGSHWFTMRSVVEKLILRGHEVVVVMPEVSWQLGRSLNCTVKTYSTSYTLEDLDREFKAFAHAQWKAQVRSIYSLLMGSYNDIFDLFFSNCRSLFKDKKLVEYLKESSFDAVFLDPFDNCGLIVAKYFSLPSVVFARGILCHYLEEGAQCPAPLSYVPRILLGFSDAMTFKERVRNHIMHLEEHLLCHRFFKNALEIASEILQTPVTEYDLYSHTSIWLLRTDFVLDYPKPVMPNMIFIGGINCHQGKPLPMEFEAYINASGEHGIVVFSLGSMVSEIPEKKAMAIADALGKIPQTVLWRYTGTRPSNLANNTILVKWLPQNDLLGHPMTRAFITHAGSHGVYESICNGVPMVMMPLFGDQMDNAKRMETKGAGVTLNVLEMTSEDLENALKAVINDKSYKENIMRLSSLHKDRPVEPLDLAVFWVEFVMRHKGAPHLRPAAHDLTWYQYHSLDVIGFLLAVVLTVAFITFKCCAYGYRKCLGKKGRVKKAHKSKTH
Procedure: as §1

[3] = biological target: T3, hUGT1A8 (Homo sapiens, UniProt Q9HAW9); test: Glucuronide production in resting S. cerevisiae AH22 cells co-expressing UDPGDH and UGT1A8; assay type: cell-based
T3 construct: expressed in transfected cells; host or cells: Saccharomyces cerevisiae AH22
T3 sequence (Q9HAW9 26-530): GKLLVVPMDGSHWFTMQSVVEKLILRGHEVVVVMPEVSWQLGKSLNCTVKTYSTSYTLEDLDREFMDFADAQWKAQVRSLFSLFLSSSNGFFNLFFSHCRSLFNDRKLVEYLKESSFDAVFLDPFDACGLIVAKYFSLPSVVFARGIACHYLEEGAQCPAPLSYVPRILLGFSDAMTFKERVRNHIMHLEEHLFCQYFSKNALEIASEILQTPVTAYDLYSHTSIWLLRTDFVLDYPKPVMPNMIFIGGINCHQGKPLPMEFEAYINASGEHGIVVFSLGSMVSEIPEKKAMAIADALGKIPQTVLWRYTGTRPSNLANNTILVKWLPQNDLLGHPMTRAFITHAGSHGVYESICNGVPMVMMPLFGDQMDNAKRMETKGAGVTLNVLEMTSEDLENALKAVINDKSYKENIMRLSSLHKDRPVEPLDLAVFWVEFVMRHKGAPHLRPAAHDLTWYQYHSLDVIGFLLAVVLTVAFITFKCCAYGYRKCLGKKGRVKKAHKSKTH
Procedure: as §1

[4] = biological target: T4, UGT1A10 (Homo sapiens, UniProt Q9HAW8); test: Acyl glucuronide production in resting S. cerevisiae cells co-expressing UDPGDH and UGT1A10; assay type: cell-based; conditions: 1 mM mefenamic acid
T4 construct: expressed in transfected cells; host or cells: Saccharomyces cerevisiae AH22
T4 sequence (Q9HAW8 26-530): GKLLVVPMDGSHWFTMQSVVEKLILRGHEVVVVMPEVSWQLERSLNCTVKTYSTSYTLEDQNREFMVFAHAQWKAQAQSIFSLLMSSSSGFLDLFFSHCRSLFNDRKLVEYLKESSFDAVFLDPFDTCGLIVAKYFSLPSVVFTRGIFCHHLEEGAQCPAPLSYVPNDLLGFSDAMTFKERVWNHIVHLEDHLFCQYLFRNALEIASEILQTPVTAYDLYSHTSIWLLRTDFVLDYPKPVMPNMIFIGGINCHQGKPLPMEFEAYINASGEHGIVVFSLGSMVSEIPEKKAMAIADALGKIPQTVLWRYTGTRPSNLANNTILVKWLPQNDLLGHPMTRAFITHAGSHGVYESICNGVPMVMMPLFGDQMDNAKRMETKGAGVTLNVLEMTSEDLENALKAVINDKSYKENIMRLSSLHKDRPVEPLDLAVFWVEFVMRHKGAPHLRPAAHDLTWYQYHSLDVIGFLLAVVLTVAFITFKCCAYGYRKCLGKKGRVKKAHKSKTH
Procedure: as §1

[5] = biological target: T5, rat UDP-glucose dehydrogenase (Rattus norvegicus, UniProt O70199); test: Production of UDP-glucuronic acid in yeast cells transformed with rat UDP-glucose dehydrogenase gene; assay type: cell-based; conditions: estimation of sugar nucleotide, FIG. 4 line C
T5 construct: confirmed the gene product from GenBank Acc; ID NO: 9; expressed in transfected cells; host or cells: Saccharomyces cerevisiae AH22
T5 sequence (O70199 1-493): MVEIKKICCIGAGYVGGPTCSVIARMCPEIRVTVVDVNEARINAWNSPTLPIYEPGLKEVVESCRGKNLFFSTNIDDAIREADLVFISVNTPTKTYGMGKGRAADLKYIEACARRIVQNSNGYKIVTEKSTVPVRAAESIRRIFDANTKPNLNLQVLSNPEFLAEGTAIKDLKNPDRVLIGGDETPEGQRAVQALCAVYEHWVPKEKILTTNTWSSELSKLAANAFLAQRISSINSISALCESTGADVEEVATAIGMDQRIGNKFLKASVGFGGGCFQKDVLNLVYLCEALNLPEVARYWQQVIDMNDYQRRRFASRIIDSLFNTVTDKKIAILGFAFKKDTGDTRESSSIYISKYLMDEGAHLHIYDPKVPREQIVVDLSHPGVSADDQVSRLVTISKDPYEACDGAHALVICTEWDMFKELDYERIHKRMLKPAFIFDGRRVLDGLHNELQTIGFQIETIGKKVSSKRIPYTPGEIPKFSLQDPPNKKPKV
Excerpt: Upper water phase of extracts were separated by centrifugation.

[6] = biological target: T6, hUGT1A7 (Homo sapiens, UniProt Q9HAW7); test: Glucuronide production in resting S. cerevisiae AH22 cells co-expressing UDPGDH and UGT1A7; assay type: cell-based; conditions: UGT1A7 with At.UDPGDH; 7-hydroxycoumarine substrate, 30° C., 24 hrs
T6 construct: expressed in transfected cells; host or cells: Saccharomyces cerevisiae AH22
T6 sequence (Q9HAW7 26-530): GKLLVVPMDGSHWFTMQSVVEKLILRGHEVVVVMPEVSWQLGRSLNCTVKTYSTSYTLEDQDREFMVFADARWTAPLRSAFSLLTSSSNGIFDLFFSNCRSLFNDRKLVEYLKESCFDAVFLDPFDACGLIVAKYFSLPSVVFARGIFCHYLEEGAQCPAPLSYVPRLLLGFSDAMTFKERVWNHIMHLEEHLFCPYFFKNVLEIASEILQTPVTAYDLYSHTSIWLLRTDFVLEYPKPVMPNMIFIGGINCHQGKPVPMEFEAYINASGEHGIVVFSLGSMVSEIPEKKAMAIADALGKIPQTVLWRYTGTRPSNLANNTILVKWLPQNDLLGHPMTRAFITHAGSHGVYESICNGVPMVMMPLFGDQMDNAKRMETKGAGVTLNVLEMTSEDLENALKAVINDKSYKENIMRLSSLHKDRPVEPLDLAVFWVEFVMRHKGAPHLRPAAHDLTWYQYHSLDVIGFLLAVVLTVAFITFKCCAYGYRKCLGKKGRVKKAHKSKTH
Procedure: as §1

[7] = biological target: T7, hUGT1A1 (Homo sapiens, UniProt P22309); test: Glucuronide production in resting S. cerevisiae AH22 cells co-expressing UDPGDH and UGT1A1; conditions: UGT1A1 with At.UDPGDH; 7-hydroxycoumarine substrate, 30° C., 24 hrs
T7 sequence (P22309 28-533): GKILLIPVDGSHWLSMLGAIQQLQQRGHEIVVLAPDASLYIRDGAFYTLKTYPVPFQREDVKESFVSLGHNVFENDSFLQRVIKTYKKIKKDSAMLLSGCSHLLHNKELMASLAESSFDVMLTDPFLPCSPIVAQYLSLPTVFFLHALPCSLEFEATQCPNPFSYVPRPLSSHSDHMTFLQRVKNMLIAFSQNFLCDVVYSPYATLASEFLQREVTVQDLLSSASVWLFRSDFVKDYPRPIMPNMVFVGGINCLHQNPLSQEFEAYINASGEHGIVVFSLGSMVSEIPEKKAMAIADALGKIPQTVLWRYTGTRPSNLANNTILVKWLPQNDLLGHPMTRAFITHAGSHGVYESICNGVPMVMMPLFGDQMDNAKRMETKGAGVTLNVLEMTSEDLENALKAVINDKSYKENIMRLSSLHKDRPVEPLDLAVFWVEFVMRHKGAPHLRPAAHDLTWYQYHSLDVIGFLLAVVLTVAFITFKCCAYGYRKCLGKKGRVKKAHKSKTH
Procedure: (§2) To confirm the production of 7-hydroxycoumarine glucuronide in the resting yeast cells containing UDPGDH and UGT, transformants were cultivated in selection medium at 30° C., 48 hrs, and the resultant yeast cells were suspended with appropriate buffer solution containing 0.1-1 mM 7-hydroxycoumarine and 1-8% (w/v) glucose. After incubation at 30° C., 24 hrs, 2-fold volume of chloroform:methanol (3:1, v/v) was added to reaction medium containing yeast cells. Centrifugation of extracts was separated to upper water and lower organic phase. Lower organic phase were evaporated and redissolved in 200 μl acetonitrile. Each phase was analyzed by UPLC system. Condition of analysis are described below; column: Cosmosil 2.5C18-MS-II (2.0 mm×100 mm, nacalai tesque), flow rate 0.5 ml/min, detection 320 nm, temperature 45° C. Condition of gradient elution: water-acetonitrile with 0.5% (v/v) trifluoroacetic acid, 10% (v/v) acetonitrile (4 min), 10-70% acetonitrile (6 min), 70-10% acetonitrile (2 min), 10% acetonitrile (4 min).
(§3) To confirm the production of quercetin glucuronide in the resting yeast cells containing UDPGDH and UGT (pAUR/At.UDPGDH+pGYR/hUGT1A1), transformants were cultivated in selection medium at 30° C., 48 hrs, and the resultant yeast cells were suspended with 0.1 M potassium phosphate buffer (pH 7.4) containing 0.2 mM quercetin and 8% (w/v) glucose. After incubation at 30° C., 24 hrs, 2-fold volume of chloroform:methanol (3:1, v/v) was added to reaction medium containing yeast cells. Centrifugation of extracts was separated to upper water and lower organic phase. Lower organic phase were evaporated and redissolved in 200 μl acetonitrile. Quercetin glucuronides in yeast cells was isolated and detected by WAKOPAK™ Navi C30-5 (3 mm×150 mm, Wako Chemical)-column-HPLC system with followed condition; flow rate; 0.4 ml/min, detection; 370 nm, temperature 37° C. Condition of gradient elution: water-acetonitrile with 0.5% (v/v) phosphoric acid, 18% (v/v) acetonitrile (10 min), 18-55% acetonitrile (10 min), 55% acetonitrile (5 min).
(§4) To compare the production ability of glucuronide in budding (Saccharomyces cerevisiae) and fission yeast (Schizosaccharomyces pombe) containing UDPGDH and UGT, several transformants (No. 4 in Table 2 and transformant with N-terminal modified UGT1A1) were selected for the assay. These transformants were cultivated in selection medium at 30° C., 48 hrs, and the resultant yeast cells were suspended with appropriate buffer solution containing 0.5 mM 4-methylumberrferone and 8% (w/v) glucose. After incubation at 30° C., 24 hrs, 2-fold volume of chloroform:methanol (3:1, v/v) was added to reaction medium containing yeast cells. Centrifugation of extracts was separated to upper water and lower organic phase. Lower organic phase were evaporated and redissolved in 200 μl acetonitrile. Each phase was analyzed by UPLC system.
(§5) Condition of analysis are described below; column: COSMOSIL™ 2.5C18-MS-II (2.0 mm×100 mm, Nacalai Tesque), flow rate 0.5 ml/min, detection 320 nm, temperature 45° C. Condition of gradient elution: water-acetonitrile with 0.1% (v/v) trifluoroacetic acid, 10% acetonitrile (4 min), 10-70% acetonitrile (6 min), 70-10% acetonitrile (2 min), 10% acetonitrile (3 min).

[8] = biological target: T7, hUGT1A1; conditions: 24 h, 0.2 mM, pH 7.4
Procedure: as §2, §3, §4, §5

Structure (SMILES): O=c1ccc2ccc(O)cc2o1 [7OHC, 7-hydroxycoumarine, reference compound]
- conversion to glucuronide, time course (FIG. 6) ([1]; 0.5 mM 7OHC, after 24 hrs): complete conversion
- conversion to glucuronide, glucose dependence (FIG. 7) ([1]; at 8% (w/v) glucose): complete conversion

Structure (SMILES): COc1c(C)c2c(c(O[C@@H]3O[C@H](C(=O)O)[C@@H](O)[C@H](O)[C@H]3O)c1C/C=C(\C)CCC(=O)O)C(=O)OC2 [mycophenolic acid glucuronide]
- production of glucuronide (FIG. 10) ([2]; 0.2 mM mycophenolic acid, 8% glucose, 30° C., 24 hrs): confirmed

Structure (SMILES): Cc1cccc(Nc2ccccc2C(=O)O[C@@H]2O[C@H](C(=O)O)[C@@H](O)[C@H](O)[C@H]2O)c1C [mefenamic acid acyl glucuronide]
- acyl glucuronide formation (FIG. 11) ([3]; 1 mM mefenamic acid, UGT1A8): significant activity
- acyl glucuronide formation (FIG. 11) [4]: significant activity

Structure (SMILES): O=C(O)[C@H]1O[C@H](OP(=O)(O)OP(=O)(O)OC[C@H]2O[C@@H](n3ccc(=O)[nH]c3=O)[C@H](O)[C@@H]2O)[C@H](O)[C@@H](O)[C@@H]1O [UDP-glucuronic acid]
- concentration of endogenous UDP-glucuronic acid in yeast cells [5]: 4 to 5 mM

Structure (SMILES): COc1c(C)c2c(c(O[C@@H]3O[C@H](C(=O)O)[C@@H](O)[C@H](O)[C@H]3O)c1C/C=C(\C)CCC(=O)O)C(=O)OC2 [mycophenolic-O-glucuronide]
- site of glucuronidation (FIG. 10) ([2]; 0.2 mM mycophenolic acid, UGT1A9): preferential production

Structure (SMILES): O=C(O)[C@H]1O[C@@H](Oc2ccc3ccc(=O)oc3c2)[C@H](O)[C@@H](O)[C@@H]1O [glucuronide of 7-hydroxycoumarine, 7-hydroxycoumarine glucuronide]
- production of glucuronide (FIG. 5) [6]: observed
- production of glucuronide (FIG. 5) ([3]; UGT1A8 with At.UDPGDH, 7-hydroxycoumarine substrate, 30° C., 24 hrs): observed
- production of glucuronide (FIG. 5) [2]: observed
- production of glucuronide (FIG. 5) ([1]; UGT1A6 with At.UDPGDH, 7-hydroxycoumarine substrate, 30° C., 24 hrs): observed
- productivity of glucuronide ([1]; optimal conditions, cells expressing UDPGDH and UGT1A6): 200 mg per liter of reaction solution
- production of glucuronide (FIG. 5) [7]: observed

Structure (SMILES): O=c1c(O)c(-c2ccc(O)c(O)c2)oc2cc(O)cc(O)c12 [Quercetin, quercetin]
- site of glucuronidation (FIG. 9) [8]: preferential production of querecetin glucuronide at 3′ phenolic hydroxyl group in B ring
